Values quoted from earlier work in patent US20240423899A1, “LONGEVITY MOISTURIZING CREAM” (Wellbeam Consumer Health Intermediate, LLC, priority 2023, published 2024).

System: skin
Conditions: topical application

For C=C[C@@](C)(/C=C/c1ccc(O)cc1)CCC=C(C)C [bakuchiol], the “irritating effect on the skin” value is given as “no irritating effect” and the “lines and wrinkles, pigmentation, elasticity, firmness, and overall reduction in photo-damage” value is given as “significant improvement”.
